Assays:
[1] = tested on: AMARE; test: C. Herbicidal pre-emergence action, weed and crop plants (Tables C); type: in vivo, Amaranthus retroflexus; conditions: application rate 320 g/ha; Table C3
Description: (§1) Seeds of mono- and dicotyledonous weed plants and crop plants were sown, in plastic or organic planting pots, in sandy loam and covered with soil. The compounds according to the invention, formulated in the form of wettable powders (WP) or as emulsifiable concentrates (EC), were applied to the surface of the covering soil as aqueous suspension or emulsion, with the addition of 0.5% of an additive, at an application rate of 6001 of water/ha (converted). Following treatment, the pots were placed in a greenhouse and kept under optimum growth conditions for the test plants. The visual grading of the damage to the test plants was carried out after ca. 3 weeks in comparison to untreated controls (herbicidal effect in percent (%): 100% effect = plants have died off, 0% effect = as control plants). Tables C1 to C12 below show the effects of selected compounds of the general formula (I) according to table 1 on various harmful plants and an application rate corresponding to 320 g/ha or below obtained by the experimental procedure mentioned above. Table C1: pre-emergence activity at 320g/ha against KCHSC in %

[2] = tested on: POLCO; test: as above; type: in vivo, Polygonum convolvulus; conditions: application rate 320 g/ha; Table C9
Description: as §1

[3] = tested on: VERPE; test: B. Herbicidal post-emergence action on harmful plants (Tables B); type: in vivo, Veronica persica
In short: (§2)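 Greenhouse weeds grown in sandy loam were sprayed post-emergence at the one-leaf stage, 2-3 weeks after sowing. Compounds were applied as WP or EC in water with 0.5% additive at 600 L/ha, at 1280 g/ha or below. Visual damage was rated after about 3 weeks versus untreated plants (0-100%).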

[4] = tested on: MATIN; test: as above; type: in vivo, Matricaria inodora; conditions: application rate 1280 g/ha; Table B4a
In short: as §2

[5] = tested on: ABUTH; test: A. Herbicidal pre-emergence action on harmful plants (Tables A); type: in vivo, Abutilon theophrasti; conditions: application rate 1280 g/ha; visual grading after ca. 3 weeks vs untreated controls; 100% = plants have died off, 0% = as control plants
Description: Seeds of mono- and dicotyledonous weed plants were sown in plastic pots (double sowings with one species of mono- and one species of dicotyledonous weed plants per pot), in sandy loam, and covered with soil. The compounds according to the invention, formulated in the form of wettable powders (WP) or as emulsifiable concentrates (EC), were applied to the surface of the covering soil as aqueous suspension or emulsion, with the addition of 0.5% of an additive, at an application rate of 6001 of water per hectare (converted). Following treatment, the pots were placed in a greenhouse and kept under optimum growth conditions for the test plants. The visual grading of the damage to the test plants was carried out after ca. 3 weeks in comparison to untreated controls (herbicidal effect in percent (%): 100% effect = plants have died off, 0% effect = as control plants). Tables A1 to A12, below, show the effects of selected compounds of the general formula (I) according to table 1 on various harmful plants and an application rate corresponding to 1280 g/ha or below obtained by the experimental procedure mentioned above. Table A1: pre-emergence activity at 1280g/ha against ABUTH in %

[6] = tested on: MATIN; test: E. Herbicidal post-emergence action, weed and crop plants (Tables E); type: in vivo, Matricaria inodora; conditions: application rate 320 g/ha, visual assessment after ca. 3 weeks
Description: (§3) Seeds of mono- and dicotyledonous weed plants and crop plants were sown, in plastic or organic planting pots, in sandy loam, covered with soil and grown in a greenhouse under controlled growth conditions. 2 to 3 weeks after sowing, the test plants were sprayed in the single-leaf stage. The compounds according to the invention, formulated in form of wettable powders (WP) or as emulsifiable concentrates (EC), were sprayed onto the green plant parts as aqueous suspension or emulsion, with the addition of 0.5% of an additive, at an application rate of 6001 of water/ha (converted). The test plants were placed in the greenhouse for ca. 3 weeks under optimum growth conditions, and then the effect of the preparations was assessed visually in comparison with untreated controls (herbicidal effect in percent (%): 100% effect = plants have died off, 0% effect = as control plants). Tables E1 to E7 below show the effects of selected compounds of the general formula (I) according to table 1 on various harmful plants and an application rate corresponding to 320 g/ha or below obtained by the experimental procedure mentioned above. Table E1: post-emergence activity at 320g/ha against ALOMY in %

[7] = tested on: VERPE; test: as above; type: in vivo, Veronica persica; conditions: application rate 320 g/ha, visual assessment after ca. 3 weeks
Description: as §3

[8] = tested on: STEME; test: B. Herbicidal post-emergence action on harmful plants (Tables B); type: in vivo, Stellaria media; conditions: application rate 1280 g/ha; Table B6
In short: as §2

[9] = application rate 1280 g/ha, Table B11a

COCc1nn(C)cc1C(=O)N1CCCC1C(O)c1ccccc1F (single isomer, unassigned) [Example I-053]
pre-emergence activity against AMARE [1]: 90%

C=C(c1ccccc1F)C1CCCN1C(=O)c1cn(C)nc1COC (racemic) [Example I-023]
pre-emergence activity against POLCO [2]: 80%

COCc1c(C(=O)N2CCCC2Cc2ccccc2Cl)cnn1C (racemic) [Example I-170]
post-emergence activity against VERPE [3, 9]: 90% | post-emergence activity against MATIN [4]: 90% | pre-emergence activity against ABUTH [5]: 90% | post-emergence activity against MATIN in % [6]: 80%

COCc1nn(C)cc1C(=O)N1CCCC1Cc1ccccc1F (single isomer, unassigned) [Example I-003]
post-emergence activity against VERPE ([3]; application rate 80 g/ha, Table B11c): 90% | post-emergence activity against VERPE ([3]; application rate 320 g/ha, Table B11b): 90% | post-emergence activity against VERPE [3, 9]: 90% | pre-emergence activity against AMARE [1]: 90% | post-emergence activity against VERPE in % [7]: 80%

COCc1c(C(=O)N2CCCC2Cc2ccccc2F)cnn1C (single isomer, unassigned) [Example I-157]
post-emergence activity against STEME [8]: 100%

CNC(=O)n1cc(C(=O)N2CCCC2Cc2ccccc2F)c(COC)n1 (racemic) [Example I-051]
post-emergence activity against STEME [8]: 90%

— patent EP4417602A1, “SUBSTITUTED PYRAZOLE CARBOXAMIDES, SALTS THEREOF AND THEIR USE AS HERBICIDALLY ACTIVE SUBSTANCES” (Bayer AG, priority 2023, dated 2024)
